Results reported in patent US8673950B2, “Dihydrooxazol-2-amine derivatives” (Hoffmann-LaRoche Inc., priority 2010, dated 2014).

How the values were obtained:
mouse TAAR1 = mouse TAAR1 (Mus musculus (Mouse), UniProt Q923Y8); assay: Radioligand binding assay on mouse TAAR1; details: for Ki: mouse TAAR1, membranes of stably transfected HEK-293 cells, first value of cell mouse/rat
Description: (§1) Construction of TAAR Expression Plasmids and Stably Transfected Cell Lines
(§2) For the construction of expression plasmids the coding sequences of human, rat and mouse TAAR 1 were amplified from genomic DNA essentially as described by Lindemann et al.. The Expand High Fidelity PCR System (Roche Diagnostics) was used with 1.5 mM Mg^2+ and purified PCR products were cloned into pCR2.1-TOPO cloning vector (Invitrogen) following the instructions of the manufacturer. PCR products were subcloned into the pIRESneo2 vector (BD Clontech, Palo Alto, Calif.), and expression vectors were sequence verified before introduction in cell lines.
(§3) HEK293 cells (ATCC # CRL-1573) were cultured essentially as described by Lindemann et al. (2005). For the generation of stably transfected cell lines HEK293 cells were transfected with the pIRESneo2 expression plasmids containing the TAAR coding sequences (described above) with Lipofectamine 2000 (Invitrogen) according to the instructions of the manufacturer, and 24 hrs post transfection the culture medium was supplemented with 1 mg/ml G418 (Sigma, Buchs, Switzerland). After a culture period of about 10 d clones were isolated, expanded and tested for responsiveness to trace amines (all compounds purchased from Sigma) with the cAMP Biotrak Enzyme immunoassay (EIA) System (Amersham) following the non-acetylation EIA procedure provided by the manufacturer.
Radioligand Binding Assay on Mouse TAAR1
(§4) Membrane Preparation and Radioligand Binding.
(§5) HEK-293 cells stably expressing mouse TAAR1 were maintained at 37° C. and 5% CO2 in DMEM high glucose medium, containing fetal calf serum (10%, heat inactivated for 30 min at 56° C.), penicillin/streptomycin (1%), and 375 μg/ml geneticin (Gibco). Cells were released from culture flasks using trypsin/EDTA, harvested, washed twice with ice-cold PBS (without Ca^2+ and Mg^2+), pelleted at 1'000 rpm for 5 min at 4° C., frozen and stored at −80° C. Frozen pellets were suspended in 20 ml HEPES-NaOH (20 mM, pH 7.4) containing 10 mM EDTA and homogenized with a Polytron (PT 6000, Kinematica) at 14'000 rpm for 20 s. The homogenate was centrifuged at 48'000×g for 30 min at 4° C. Subsequently, the supernatant was removed and discarded, and the pellet resuspended in 20 ml HEPES-NaOH (20 mM, pH 7.4) containing 0.1 mM EDTA using the Polytron (20 s at 14'000 rpm). This procedure was repeated and the final pellet resuspended in HEPES-NaOH containing 0.1 mM EDTA and homogenized using the Polytron. Typically, aliquots of 2 ml membrane portions were stored at −80° C. With each new membrane batch the dissociation constant (Kd) was determined via a saturation curve. The TAAR1 radioligand ^3[H]-(S)-4-[(ethyl-phenyl-amino)-methyl]-4,5-dihydro-oxazol-2-ylamine (described in WO 2008/098857) was used at a concentration equal to the calculated Kd value, that was usually around 0.7 nM, resulting in the binding of approximately 0.5% of the radioligand and a specific binding representing approximately 70% of the total binding. Nonspecific binding was defined as the amount of ^3[H]-(S)-4-[(ethyl-phenyl-amino)-methyl]-4,5-dihydro-oxazol-2-ylamine bound in the presence of 10 μM unlabeled ligand. All compounds were tested at a broad range of concentrations (10 μM to 10 μM) in duplicates. […] The 96 deep well plates were incubated for 1 hr at 4° C. Incubations were terminated by rapid filtration through Unifilter-96 plates (Packard Instrument Company) and glass filters GF/C (Perkin Elmer) presoaked for 1 hr in polyethylenimine (0.3%) and washed 3 times with 1 ml of cold binding buffer. After addition of 45 μl of Microscint 40 (PerkinElmer) the Unifilter-96 plate was sealed and after 1 hr the radioactivity counted using a TopCount Microplate Scintillation Counter (Packard Instrument Company).

rat TAAR1 = rat TAAR1 (Rattus norvegicus (Rat), UniProt Q923Y9); assay: Radioligand binding assay on rat TAAR1; details: for Ki: rat TAAR1, membranes of stably transfected HEK-293 cells, second value of cell mouse/rat
Description: as §1, §2, §3
Radioligand Binding Assay on Rat TAAR1
as §4
as §5, with “expressing rat” for “expressing mouse”, “curve. […]” for “curve. The TAAR1 radioligand ^3[H]-(S)-4-[(ethyl-phenyl-amino)-methyl]-4,5-dihydro-oxazol-2-ylamine (described in WO 2008/098857) was used at a concentration equal to the calculated Kd value, that was usually around 0.7 nM, resulting in the binding of approximately 0.5% of the radioligand and a specific binding representing approximately 70% of the total binding.”, “(10 pM” for “(10 μM”

Sequence of rat TAAR1 (Q923Y9 whole entry): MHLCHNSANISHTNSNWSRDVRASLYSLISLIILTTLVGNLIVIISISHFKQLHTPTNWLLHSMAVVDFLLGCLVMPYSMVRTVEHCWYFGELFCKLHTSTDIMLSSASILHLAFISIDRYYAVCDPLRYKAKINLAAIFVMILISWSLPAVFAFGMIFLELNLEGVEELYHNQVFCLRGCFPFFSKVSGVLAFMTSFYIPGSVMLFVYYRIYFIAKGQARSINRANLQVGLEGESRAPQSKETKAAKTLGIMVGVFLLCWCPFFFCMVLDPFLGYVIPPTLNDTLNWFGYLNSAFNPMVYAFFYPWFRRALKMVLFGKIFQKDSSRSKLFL
Sequence of mouse TAAR1 (Q923Y8 whole entry): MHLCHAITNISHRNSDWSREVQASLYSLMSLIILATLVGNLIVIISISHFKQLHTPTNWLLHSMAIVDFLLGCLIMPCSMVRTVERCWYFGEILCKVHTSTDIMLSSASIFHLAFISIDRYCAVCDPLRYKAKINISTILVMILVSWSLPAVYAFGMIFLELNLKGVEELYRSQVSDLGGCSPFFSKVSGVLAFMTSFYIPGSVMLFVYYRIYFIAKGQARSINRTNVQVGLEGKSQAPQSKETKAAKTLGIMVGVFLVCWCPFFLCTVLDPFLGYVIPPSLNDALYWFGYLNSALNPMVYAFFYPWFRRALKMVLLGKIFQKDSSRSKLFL

Compound	Ki (mouse TAAR1)	Ki (rat TAAR1)	Kd (mouse TAAR1; mouse TAAR1 membranes, saturation curve, read-out: dissociation constant (Kd) of the radioligand)	Kd (rat TAAR1; rat TAAR1 membranes, saturation curve, read-out: dissociation constant (Kd) of the radioligand)
NC1=N[C@@H](CCc2ccc(Nc3nccnc3Cl)cc2)CO1 [Example 41, {4-[2-((S)-2-Amino-4,5-dihydro-oxazol-4-yl)-ethyl]-phenyl}-(3-chloro-pyrazin-2-yl)-amine]	0.0593 µM	0.0031 µM		
CCC(=O)c1cnc(Nc2ccc(CC[C@H]3COC(N)=N3)cc2)nc1 [Example 53, (S)-1-(2-(4-(2-(2-Amino-4,5-dihydrooxazol-4-yl)ethyl)phenylamino)pyrimidin-5-yl)propan-1-one]	0.113 µM	0.0265 µM		
N#Cc1cnc(Nc2ccc(CC[C@H]3COC(N)=N3)cc2)nc1 [Example 59, 2-{4-[2-((S)-2-Amino-4,5-dihydro-oxazol-4-yl)-ethyl]-phenylamino}-pyrimidine-5-carbonitrile]	0.008 µM	0.0008 µM		
NC1=N[C@@H](CCc2ccc(Nc3ncccc3F)cc2)CO1 [Example 21, {4-[2-((S)-2-Amino-4,5-dihydro-oxazol-4-yl)-ethyl]-phenyl}-(3-fluoro-pyridin-2-yl)-amine]	0.02 µM	0.0005 µM		
CS(=O)(=O)c1cnc(Nc2ccc(CC[C@H]3COC(N)=N3)cc2)nc1 [Example 74, (S)-4-(4-(5-(Methylsulfonyl)pyrimidin-2-ylamino)phenethyl)-4,5-dihydrooxazol-2-amine]	0.046 µM	0.0146 µM		
NC1=N[C@@H](CCc2ccc(NC(c3cccc(F)c3)C(F)(F)F)cc2)CO1 (stereo partly drawn) [Example 66, (4S)-4-(4-(2,2,2-Trifluoro-1-(3-fluorophenyl)ethylamino)phenethyl)-4,5-dihydrooxazol-2-amine]	0.023 µM	0.0064 µM		
COc1ccc(Nc2ccc(CC[C@H]3COC(N)=N3)cc2)nc1 [Example 30, {4-[2-((S)-2-Amino-4,5-dihydro-oxazol-4-yl)-ethyl]-phenyl}-(5-methoxy-pyridin-2-yl)-amine]	0.134 µM	0.0083 µM		
NC1=N[C@@H](CCc2ccc(Nc3cc(F)ccn3)cc2)CO1 [Example 22, {4-[2-((S)-2-Amino-4,5-dihydro-oxazol-4-yl)-ethyl]-phenyl}-(4-fluoro-pyridin-2-yl)-amine]	0.0034 µM	0.0002 µM		
NC1=N[C@@H](CCc2ccc(Nc3ncc(F)cn3)cc2)CO1 [Example 20, {4-[2-((S)-2-Amino-4,5-dihydro-oxazol-4-yl)-ethyl]-phenyl}-(5-fluoro-pyrimidin-2-yl)-amine]	0.0224 µM	0.004 µM		
CCN(C[C@H]1COC(N)=N1)c1ccccc1 [^3[H]-(S)-4-[(ethyl-phenyl-amino)-methyl]-4,5-dihydro-oxazol-2-ylamine, reference compound]			~0.7 nM	~2.3 nM

The next lines start with the values.

Ki (mouse TAAR1)	Ki (rat TAAR1)	Kd (mouse TAAR1; mouse TAAR1 membranes, saturation curve, read-out: dissociation constant (Kd) of the radioligand)	Kd (rat TAAR1; rat TAAR1 membranes, saturation curve, read-out: dissociation constant (Kd) of the radioligand)	Compound
0.005 µM	0.0083 µM			CCOc1cnc(Nc2ccc(CC[C@H]3COC(N)=N3)cc2)nc1 [Example 55, {4-[2-((S)-2-Amino-4,5-dihydro-oxazol-4-yl)-ethyl]-phenyl}-(5-ethoxy-pyrimidin-2-yl)-amine]
0.0012 µM	0.0002 µM			NC1=N[C@@H](CCc2ccc(Nc3ncc(Cl)cn3)cc2)CO1 [Example 18, {4-[2-((S)-2-Amino-4,5-dihydro-oxazol-4-yl)-ethyl]-phenyl}-(5-chloro-pyrimidin-2-yl)-amine]
0.0006 µM	0.0004 µM			NC1=N[C@@H](CCc2ccc(Nc3ncc(Br)cn3)cc2)CO1 [Example 51, {4-[2-((S)-2-Amino-4,5-dihydro-oxazol-4-yl)-ethyl]-phenyl}-(5-bromo-pyrimidin-2-yl)-amine]
0.0001 µM	0.0001 µM			Cc1cc(Nc2ccc(CC[C@H]3COC(N)=N3)cc2)ccc1OC(F)(F)F [Example 10, (S)-4-(4-(3-Methyl-4-(trifluoromethoxy)phenylamino)phenethyl)-4,5-dihydrooxazol-2-amine]
0.0047 µM	0.0004 µM			COc1ccnc(Nc2ccc(CC[C@H]3COC(N)=N3)cc2)n1 [Example 36, {4-[2-((S)-2-Amino-4,5-dihydro-oxazol-4-yl)-ethyl]-phenyl}-(4-methoxy-pyrimidin-2-yl)-amine]
0.0218 µM	0.0006 µM			NC1=N[C@@H](CCc2ccc(Nc3cnc(Cl)nc3)cc2)CO1 [Example 50, {4-[2-((S)-2-Amino-4,5-dihydro-oxazol-4-yl)-ethyl]-phenyl}-(2-chloro-pyrimidin-5-yl)-amine]
0.0021 µM	0.0001 µM			NC1=N[C@@H](CCc2ccc(Nc3cccc4ccccc34)cc2)CO1 [Example 2, (S)-4-(4-(Naphthalen-1-ylamino)phenethyl)-4,5-dihydrooxazol-2-amine]
0.0003 µM	0.0002 µM			NC1=N[C@@H](CCc2ccc(Nc3ncc(C4CCC4)cn3)cc2)CO1 [Example 60, (S)-4-(4-(5-Cyclobutylpyrimidin-2-ylamino)phenethyl)-4,5-dihydrooxazol-2-amine]
0.0002 µM	0.0001 µM			CCC(CC)c1cnc(Nc2ccc(CC[C@H]3COC(N)=N3)cc2)nc1 [Example 58, (S)-4-(4-(5-(Pentan-3-yl)pyrimidin-2-ylamino)phenethyl)-4,5-dihydrooxazol-2-amine]
0.007 µM	0.0007 µM			COc1cnc(Nc2ccc(CC[C@H]3COC(N)=N3)cc2)nc1 [Example 38, {4-[2-((8)-2-Amino-4,5-dihydro-oxazol-4-yl)-ethyl]-phenyl}-(5-methoxy-pyrimidin-2-yl)-amine]
0.001 µM	0.0011 µM			COc1nc(Cl)cc(Nc2ccc(CC[C@H]3COC(N)=N3)cc2)n1 [Example 44, {4-[2-((S)-2-Amino-4,5-dihydro-oxazol-4-yl)-ethyl]-phenyl}-(6-chloro-2-methoxy-pyrimidin-4-yl)-amine]
0.0003 µM	0.0004 µM			NC1=N[C@@H](CCc2ccc(Nc3ncc(C4CC4)cn3)cc2)CO1 [Example 54, {4-[2-((S)-2-Amino-4,5-dihydro-oxazol-4-yl)-ethyl]-phenyl}-(5-cyclopropyl-pyrimidin-2-yl)-amine]
